Source: patent publication US10590143B2, “Herbicidally active (alkynyl-phenyl)-substituted cyclic dione compounds and derivatives thereof” (Syngenta Limited, priority 2013, dated 2020)
Read-outs that look alike come from different tables or passages of the source.

How the values were obtained:
Assay type in all cases: in vivo
[1] = tested on: Abutilon theophrasti (ABUTH); assay: Biological Example 1 glasshouse assay for herbicidal activity; conditions: 312 h, 13 days after application, read-out: percentage phytotoxicity ABUTH
Method: (§1) Seeds of a variety of test plant species were sown in standard soil** in pots. After cultivation for one day (pre-emergence) or after 8 days cultivation (post-emergence) under controlled conditions in a glasshouse (at 24/16° C., day/night; 14 hours light; 65% humidity), the plants were sprayed with an aqueous spray solution derived from the formulation of the technical active ingredient (the test herbicide) in acetone/water (50:50) solution containing 0.5% Tween 20 (polyoxyethylene sorbitan monolaurate, CAS Reg. No. 9005-64-5). The test plants were then grown on under controlled conditions in a glasshouse (at 24/16° C., day/night; 14 hours light; 65% humidity) and watered twice daily. 13 Days after application of the test herbicide, for pre- and post-emergence, the test was evaluated visually for percentage phytotoxicity to each plant (where 100%=total damage to plant; 0%=no damage to plant). Generally, each test herbicide is only tested on 1 plant per plant species for each application rate tested and for each application timing. **The “standard soil” in Biological Example 1 is usually a “sand” or “sandy loam” type of soil.
(§2) Dicotyledonous weeds: ABUTH=Abutilon theophrasti; AMARE=Amaranthus retroflexus. Grassy monocotyledonous weeds: SETFA=Setaria faberi; ALOMY=Alopecurus myosuroides; ECHCG=Echinochloa crus-galli; ZEAMX=Zea mays (corn, maize, e.g. volunteer corn).

[2] = tested on: Alopecurus myosuroides (ALOMY); assay: as above; conditions: 312 h, 13 days after application, read-out: percentage phytotoxicity ALOMY
Method: as §1, §2

[3] = tested on: Amaranthus retroflexus (AMARE); assay: as above; conditions: 13 days after application; for pest or weed control at 8 g/ha / pest or weed control at 250 g/ha / pest or weed control at 30 g/ha: Amaranthus retroflexus, 312 h, read-out: percentage phytotoxicity AMARE
Method: as §1, §2

[4] = tested on: Echinochloa crus-galli (ECHCG); assay: as above; conditions: 13 days after application; for pest or weed control at 30 g/ha / pest or weed control at 250 g/ha: Echinochloa crus-galli, 312 h, read-out: percentage phytotoxicity ECHCG; for pest or weed control at 250 g/ha / percentage phytotoxicity ECHCG: 250 g/ha
Method: as §1, §2

[5] = tested on: Setaria faberi (SETFA); assay: as above; conditions: 312 h, 13 days after application, read-out: percentage phytotoxicity SETFA
Method: as §1, §2

[6] = tested on: Zea mays (ZEAMX, corn, maize, e.g. volunteer corn); assay: as above; conditions: 13 days after application; for pest or weed control at 8 g/ha / pest or weed control at 30 g/ha / pest or weed control at 250 g/ha: Zea mays, 312 h, read-out: percentage phytotoxicity ZEAMX; for pest or weed control at 250 g/ha / percentage phytotoxicity ZEAMX: 250 g/ha
Method: as §1, §2

[7] = tested on: Brassica napus (BRSNN, rape); assay: Biological Example 2 glasshouse assay for herbicidal activity; conditions: post-emergence, 14 or 15 DAA, 0.2% v/v X-77
Method: (§3) Seeds of a variety of monocotyledonous and dicotyledonous test plants are sown in standard soil in pots. The plants are cultivated for one day (for pre-emergence) or for about 12 days (range=10-13 days) (for post-emergence) under controlled conditions in a glasshouse (warm climate species at 24/18° C., cool climate species at 20/16° C., both at day/night; 16 hours light; 65% humidity).
(§4) An “instant formulation”, known as the “IF50”, containing 50 g/litre (i.e. 5% w/v) of the “technical” (i.e. unformulated) active ingredient is prepared by dissolving the active ingredient in a mixture of organic solvents and emulsifier, details of which are provided in the Table below. This IF50 is then mixed with a small, variable amount of acetone to aid dissolution, before addition of a 0.2% v/v aqueous solution of the adjuvant X-77 (which is a mixture of alkyl aryl polyoxyethylene glycols and free fatty acids in isopropanol, CAS Registry number 11097-66-8), as the aqueous diluent, to form an aqueous spray solution which contains a predetermined concentration of the active ingredient (which varies depending on the application rate of the active ingredient to the plants) and 0.2% v/v of the adjuvant X-77. This aqueous spray solution is then sprayed onto the plants, after one day's cultivation (for pre-emergence) or after about 12 days' cultivation (for post-emergence).
(§5) The test plants are then grown on, in a glasshouse (greenhouse) under controlled conditions (at either 24/18° C. or 20/16° C. (day/night) as mentioned above; 16 hours light; 65% humidity) and are watered twice daily. Either 14 or 15 days after application of the herbicide (14 or 15 DAA) (for post-emergence), or 20 days after application of the herbicide (20 DAA) (for pre-emergence), the test plants are evaluated visually, and an assessed percentage phytotoxicity score is given for each herbicidal application on each plant species (where 100%=total damage to plant; 0%=no damage to plant).
(§6) Some of the typical test plants are as follows: • Cool climate crop plants: Triticum aestivum (TRZAW, winter wheat), Brassica napus (BRSNN, rape, also called oilseed rape or rapeseed), Beta vulgaris (BEAVA, sugarbeet). • Warm climate crop plants: Glycine max (GLXMA, soybean). • Cool climate (“cool season”) grassy monocotyledonous weeds: Alopecurus myosuroides (ALOMY), Avena fatua (AVEFA), Lolium perenne (LOLPE), Poa annua (POAAN), Bromus tectorum (BROTE). • Warm climate (“warm season”) grassy monocotyledonous weeds: Setaria faberi (SETFA), SORVU (Sorghum bicolor (L.) Moench ssp. Bicolor, or Sorghum vulgare Pers.), Digitaria sanguinalis (DIGSA), Echinochloa crus-galli (ECHCG), Brachiaria plantaginea (BRAPL); Zea mays (ZEAMX, corn, maize, e.g. volunteer corn).

[8] = tested on: Setaria faberi (SETFA); assay: as above; conditions: post-emergence, 360 h, 14 or 15 DAA, 0.2% v/v X-77, read-out: percentage phytotoxicity SETFA
Method: as §3, §4, §5, §6

[9] = tested on: Glycine max (GLXMA, soybean); assay: as above; conditions: post-emergence, 360 h, 250 g/ha, 14 or 15 DAA, 0.2% v/v X-77, read-out: percentage phytotoxicity GLXMA
Method: as §3, §4, §5, §6

[10] = post-emergence, post-emergence, 250 g/ha
[11] = pre-emergence, pre-emergence, 250 g/ha
[12] = Brassica napus, 360 h, 250 g/ha, read-out: percentage phytotoxicity BRSNN

SMILES | pest or weed control at 30 g/ha ([1]; pre-emergence, pre-emergence) [%] | pest or weed control at 30 g/ha ([2]; post-emergence) [%] | pest or weed control at 250 g/ha ([2]; post-emergence) [%] | pest or weed control at 30 g/ha ([2]; pre-emergence) [%] | pest or weed control at 250 g/ha ([2]; pre-emergence) [%] | pest or weed control at 250 g/ha [3, 10] [%] | pest or weed control at 30 g/ha ([3]; pre-emergence, pre-emergence) [%] | pest or weed control at 250 g/ha [3, 11] [%] | pest or weed control at 30 g/ha ([4]; post-emergence, post-emergence) [%] | pest or weed control at 250 g/ha ([4]; post-emergence, post-emergence) [%] | pest or weed control at 250 g/ha ([4]; pre-emergence, pre-emergence) [%] | pest or weed control at 250 g/ha ([5]; post-emergence, post-emergence) [%] | pest or weed control at 250 g/ha ([5]; pre-emergence, pre-emergence) [%] | pest or weed control at 30 g/ha ([6]; post-emergence, post-emergence) [%] | pest or weed control at 250 g/ha ([6]; post-emergence, post-emergence) [%] | pest or weed control at 30 g/ha ([6]; pre-emergence, pre-emergence) [%] | pest or weed control at 250 g/ha ([6]; pre-emergence, pre-emergence) [%] | plant injury at 250 g/ha [7, 12] [%] | pest or weed control at 250 g/ha [8] [%] | pest or weed control at 250 g/ha ([1]; post-emergence, post-emergence) [%] | other results
CC#Cc1cc(F)c(C2C(=O)C3CCC(C3)C2=O)c(OC)c1 (stereo not drawn) [Compound A1, 3-(2-Fluoro-6-methoxy-4-prop-1-ynyl-phenyl)-bicyclo[3.2.1]octane-2,4-dione] | 0 | 100 | 100 | 100 | 100 | 30 | 0 | 20 | 100 | 100 | 100 | 100 | 100 | 100 | 100 | 100 | 100 | 80 | 100 | – | pest or weed control at 8 g/ha ([1]; post-emergence, post-emergence): 0%; pest or weed control at 8 g/ha ([1]; pre-emergence, pre-emergence): 0%; pest or weed control at 8 g/ha ([2]; post-emergence): 80%; pest or weed control at 8 g/ha ([2]; pre-emergence): 70%; pest or weed control at 8 g/ha ([3]; post-emergence, post-emergence): 0%; pest or weed control at 8 g/ha ([3]; pre-emergence, pre-emergence): 0%; percentage phytotoxicity AMARE ([3]; post-emergence, 250 g/ha): 30%; percentage phytotoxicity ECHCG ([4]; post-emergence): 100%; percentage phytotoxicity ECHCG ([4]; pre-emergence): 100%; pest or weed control at 8 g/ha ([5]; pre-emergence, pre-emergence, 8 g/ha): 50%; pest or weed control at 8 g/ha ([6]; post-emergence, post-emergence): 100%; pest or weed control at 8 g/ha ([6]; pre-emergence, pre-emergence): 60%; percentage phytotoxicity ZEAMX ([6]; post-emergence): 100%; percentage phytotoxicity ZEAMX ([6]; pre-emergence): 100%; plant injury at 30 g/ha ([7]; Brassica napus, 360 h, 30 g/ha, read-out: percentage phytotoxicity BRSNN): 40%; percentage phytotoxicity BRSNN ([7]; 250 g/ha): 80%; pest or weed control at 30 g/ha ([8]; 30 g/ha): 90%
CC#Cc1cc(F)c(C2C(=O)C3CCC(C)(C2=O)C3(C)C)c(OC)c1 (stereo not drawn) [Compound A2] | 60 | 80 | 90 | 70 | 90 | 0 | 10 | 40 | 100 | 100 | 100 | 90 | 100 | 100 | 100 | 60 | 100 | 10 | 80 | 0 | pest or weed control at 30 g/ha ([1]; post-emergence, post-emergence): 0%; pest or weed control at 250 g/ha ([1]; pre-emergence, pre-emergence): 60%; pest or weed control at 30 g/ha ([3]; post-emergence, post-emergence): 0%; pest or weed control at 30 g/ha ([4]; pre-emergence, pre-emergence): 90%; pest or weed control at 30 g/ha ([5]; post-emergence, post-emergence): 90%; pest or weed control at 30 g/ha ([5]; pre-emergence, pre-emergence): 70%; plant injury at 250 g/ha [9]: 20%
COc1cc(C#CCl)cc(F)c1C1C(=O)C2CCC(C2)C1=O (stereo not drawn) [Compound A8, 3-[4-(2-chloroethynyl)-2-fluoro-6-methoxy-phenyl]bicyclo[3.2.1]octane-2,4-dione] | 10 | – | 70 | 40 | 60 | 10 | 50 | 40 | – | 70 | 60 | 70 | 60 | – | 50 | 60 | 70 | – | – | 0 | pest or weed control at 250 g/ha ([1]; pre-emergence, pre-emergence): 0%; pest or weed control at 30 g/ha ([4]; pre-emergence, pre-emergence): 30%; pest or weed control at 30 g/ha ([5]; pre-emergence, pre-emergence): 60%
